pIC50: −log10 of the molar value. ≈ marks a conversion by molar mass, not a printed value.
Key:
[1] = Inhibition of bovine recombinant PI3K p110delta expressed in Sf21 insect cells using phosphatidylinositol as substrate after 1 hr by phosphoimaging; design: species or system Bos taurus
[2] = target: Phosphatidylinositol 4,5-bisphosphate 3-kinase catalytic subunit beta isoform (Homo sapiens, UniProt P42338); assay: Inhibition of human recombinant PI3K p110beta expressed in Sf21 insect cells using phosphatidylinositol as substrate after 1 hr by phosphoimaging
[3] = target: Phosphatidylinositol 4,5-bisphosphate 3-kinase catalytic subunit alpha isoform (Mus musculus, UniProt P42337); assay: Inhibition of mouse recombinant PI3K p110alpha expressed in Sf21 insect cells using phosphatidylinositol as substrate after 1 hr by phosphoimaging
[4] = cells; conditions: Homo sapiens, NZOV9
[5] = cells; conditions: Homo sapiens, NZB5
[6] = target: T1, Phosphatidylinositol 4,5-bisphosphate 3-kinase catalytic subunit alpha isoform (Homo sapiens, UniProt P42336); assay: Inhibition of PIK3CA-mediated cell signaling in PTEN-deficient human U87MG cells assessed as inhibition of insulin-induced pAkt/PKB phosphorylation at Thr308 treated for 15 mins before insulin challenge measured after 5 mins by immunoblotting; type: cell-based, U-87MG ATCC
[7] = target: T1, Phosphatidylinositol 4,5-bisphosphate 3-kinase catalytic subunit alpha isoform; assay: Inhibition of PIK3CA-mediated cell signaling in PTEN-deficient human U87MG cells assessed as inhibition of insulin-induced pAkt/PKB phosphorylation at Ser473 treated for 15 mins before insulin challenge measured after 5 mins by immunoblotting; type: cell-based, U-87MG ATCC
[8] = cells; conditions: Homo sapiens, HCT-116
[9] = cells; conditions: Homo sapiens, HCT-116; remark: listed apart in the source
[10] = Aqueous solubility of the compound in water after 15 mins by HPLC analysis; conditions: aqueous medium

Phosphatidylinositol 4,5-bisphosphate 3-kinase catalytic subunit beta isoform, sequence (P42338 whole entry, canonical isoform): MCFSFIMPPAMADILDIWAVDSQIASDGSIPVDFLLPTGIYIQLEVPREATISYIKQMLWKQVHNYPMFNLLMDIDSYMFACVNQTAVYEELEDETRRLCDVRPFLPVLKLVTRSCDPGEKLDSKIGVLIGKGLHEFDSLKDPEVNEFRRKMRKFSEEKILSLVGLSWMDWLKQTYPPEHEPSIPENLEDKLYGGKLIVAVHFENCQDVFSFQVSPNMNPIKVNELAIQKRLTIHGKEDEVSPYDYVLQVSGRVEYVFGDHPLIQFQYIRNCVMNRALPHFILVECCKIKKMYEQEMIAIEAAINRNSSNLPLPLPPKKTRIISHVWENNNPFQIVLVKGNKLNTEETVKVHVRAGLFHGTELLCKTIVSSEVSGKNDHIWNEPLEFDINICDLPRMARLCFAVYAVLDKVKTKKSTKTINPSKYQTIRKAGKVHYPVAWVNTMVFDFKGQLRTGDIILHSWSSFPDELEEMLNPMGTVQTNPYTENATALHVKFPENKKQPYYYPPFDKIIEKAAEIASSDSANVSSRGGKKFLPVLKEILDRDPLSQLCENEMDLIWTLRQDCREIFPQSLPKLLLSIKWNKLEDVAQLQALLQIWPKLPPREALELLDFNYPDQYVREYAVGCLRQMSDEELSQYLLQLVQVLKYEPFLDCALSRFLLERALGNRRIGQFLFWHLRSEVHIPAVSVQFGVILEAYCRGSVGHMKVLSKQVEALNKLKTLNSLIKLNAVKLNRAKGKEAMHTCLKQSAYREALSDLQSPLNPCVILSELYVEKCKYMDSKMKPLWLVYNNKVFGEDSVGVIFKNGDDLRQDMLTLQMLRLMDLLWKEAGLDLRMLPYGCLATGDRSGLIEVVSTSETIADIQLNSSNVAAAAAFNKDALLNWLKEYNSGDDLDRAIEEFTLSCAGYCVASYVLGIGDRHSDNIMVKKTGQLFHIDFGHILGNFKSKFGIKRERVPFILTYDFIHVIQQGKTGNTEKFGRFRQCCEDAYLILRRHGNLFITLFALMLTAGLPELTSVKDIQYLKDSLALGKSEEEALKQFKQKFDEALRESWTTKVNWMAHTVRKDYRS
Phosphatidylinositol 4,5-bisphosphate 3-kinase catalytic subunit alpha isoform (Mus musculus, UniProt P42337), sequence (P42337 whole entry, canonical isoform): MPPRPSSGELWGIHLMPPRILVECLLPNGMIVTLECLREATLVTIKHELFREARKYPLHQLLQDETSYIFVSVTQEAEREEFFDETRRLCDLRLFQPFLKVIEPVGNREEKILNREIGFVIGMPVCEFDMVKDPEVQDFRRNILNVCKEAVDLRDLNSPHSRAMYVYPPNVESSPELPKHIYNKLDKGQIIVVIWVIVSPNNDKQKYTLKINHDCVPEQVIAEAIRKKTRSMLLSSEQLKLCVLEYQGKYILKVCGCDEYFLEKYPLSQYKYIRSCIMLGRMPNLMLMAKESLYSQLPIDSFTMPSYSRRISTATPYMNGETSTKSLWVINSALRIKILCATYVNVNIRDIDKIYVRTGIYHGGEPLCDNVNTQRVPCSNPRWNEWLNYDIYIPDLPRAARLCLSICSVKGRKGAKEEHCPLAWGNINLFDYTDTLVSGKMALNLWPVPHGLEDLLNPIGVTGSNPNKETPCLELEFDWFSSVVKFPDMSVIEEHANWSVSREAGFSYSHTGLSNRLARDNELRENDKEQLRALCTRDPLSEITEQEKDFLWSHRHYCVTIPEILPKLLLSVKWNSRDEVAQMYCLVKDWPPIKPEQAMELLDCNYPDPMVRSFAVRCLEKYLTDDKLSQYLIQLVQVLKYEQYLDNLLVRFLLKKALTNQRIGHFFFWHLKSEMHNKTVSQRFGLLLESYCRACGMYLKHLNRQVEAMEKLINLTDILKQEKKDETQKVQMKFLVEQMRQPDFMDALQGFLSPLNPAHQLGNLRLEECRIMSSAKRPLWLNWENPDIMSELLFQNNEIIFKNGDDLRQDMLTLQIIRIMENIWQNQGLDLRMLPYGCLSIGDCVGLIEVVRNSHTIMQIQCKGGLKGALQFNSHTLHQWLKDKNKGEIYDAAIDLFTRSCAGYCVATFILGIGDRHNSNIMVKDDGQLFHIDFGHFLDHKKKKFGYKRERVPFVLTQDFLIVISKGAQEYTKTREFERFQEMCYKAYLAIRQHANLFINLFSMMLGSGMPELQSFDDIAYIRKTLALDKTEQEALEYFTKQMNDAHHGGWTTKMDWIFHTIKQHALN
T1 sequence (P42336 whole entry, canonical isoform): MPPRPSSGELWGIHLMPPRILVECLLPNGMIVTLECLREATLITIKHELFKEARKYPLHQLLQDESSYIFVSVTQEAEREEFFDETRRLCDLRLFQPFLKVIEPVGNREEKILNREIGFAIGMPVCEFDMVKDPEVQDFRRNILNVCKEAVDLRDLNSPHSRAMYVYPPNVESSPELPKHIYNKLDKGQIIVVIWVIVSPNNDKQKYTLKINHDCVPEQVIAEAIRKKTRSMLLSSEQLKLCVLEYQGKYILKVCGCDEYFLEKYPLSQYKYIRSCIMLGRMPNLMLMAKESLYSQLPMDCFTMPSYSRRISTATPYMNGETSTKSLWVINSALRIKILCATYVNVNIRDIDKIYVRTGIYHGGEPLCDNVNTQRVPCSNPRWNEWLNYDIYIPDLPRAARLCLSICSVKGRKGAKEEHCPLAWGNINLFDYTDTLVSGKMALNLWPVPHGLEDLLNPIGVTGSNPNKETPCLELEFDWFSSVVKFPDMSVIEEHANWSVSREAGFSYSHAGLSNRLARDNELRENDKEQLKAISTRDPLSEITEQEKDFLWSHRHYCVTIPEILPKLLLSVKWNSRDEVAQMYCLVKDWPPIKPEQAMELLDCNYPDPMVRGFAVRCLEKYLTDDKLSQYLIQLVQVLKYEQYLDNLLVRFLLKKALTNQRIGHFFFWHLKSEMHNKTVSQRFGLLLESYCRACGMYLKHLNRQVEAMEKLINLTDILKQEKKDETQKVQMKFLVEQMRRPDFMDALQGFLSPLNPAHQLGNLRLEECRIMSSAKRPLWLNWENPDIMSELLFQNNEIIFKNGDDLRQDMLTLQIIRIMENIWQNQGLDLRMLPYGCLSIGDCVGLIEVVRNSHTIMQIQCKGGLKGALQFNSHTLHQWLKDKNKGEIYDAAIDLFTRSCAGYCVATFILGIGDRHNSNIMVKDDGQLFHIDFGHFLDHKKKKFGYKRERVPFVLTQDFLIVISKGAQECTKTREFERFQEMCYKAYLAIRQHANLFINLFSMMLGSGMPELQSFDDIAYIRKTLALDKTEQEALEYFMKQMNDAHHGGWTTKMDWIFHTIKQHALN

SMILES | pIC50 [2] | pIC50 [3] | pIC50 [4] | pIC50 [5] | pIC50 [6] | pIC50 [7] | pIC50 [8] | pIC50 [9] | solubility at […] [10] [µg/mL] | pIC50 [1]
Cc1nc2ccccc2n1-c1nc(N2CCOCC2)nc(N2CCOCC2)n1 | 6.54 | 6.84 | 6.22 | 6.55 | – | – | – | – | – | 7.46
FCc1nc2ccccc2n1-c1nc(N2CCOCC2)nc(N2CCOCC2)n1 | 7.28 | 7.47 | 6.46 | 6.41 | – | – | – | – | – | 7.89
FC(F)(F)c1nc2ccccc2n1-c1nc(N2CCOCC2)nc(N2CCOCC2)n1 | 6.34 | 6.69 | 6.15 | 6.05 | – | – | – | – | – | 7.15
CSCc1nc2ccccc2n1-c1nc(N2CCOCC2)nc(N2CCOCC2)n1 | 7.41 | 6.77 | 7.07 | 7.08 | – | – | – | – | – | 7.39
CS(=O)(=O)Cc1nc2ccccc2n1-c1nc(N2CCOCC2)nc(N2CCOCC2)n1 | 6.60 | 6.32 | 6.36 | 6.60 | – | – | – | – | – | 7.27
CSc1nc2ccccc2n1-c1nc(N2CCOCC2)nc(N2CCOCC2)n1 | < 6.00 | 5.54 | 6.70 | 6.70 | – | – | – | – | – | 6.57
CCOc1cccc2c1nc(C(F)F)n2-c1nc(N2CCOCC2)nc(N2CCOCC2)n1 | 6.98 | 8.57 | 7.40 | 7.15 | – | – | – | – | – | 8.26
Nc1cccc2c1nc(C(F)F)n2-c1nc(N2CCOCC2)nc(N2CCOCC2)n1 | 7.39 | 8.32 | 7.10 | 7.30 | – | – | – | – | – | 9.07
CNc1cccc2c1nc(C(F)F)n2-c1nc(N2CCOCC2)nc(N2CCOCC2)n1 | 6.32 | 6.68 | 6.59 | 6.96 | – | – | – | – | – | 7.17
OCc1cccc2c1nc(C(F)F)n2-c1nc(N2CCOCC2)nc(N2CCOCC2)n1 | 7.17 | 7.57 | 6.77 | 6.52 | – | – | – | – | – | 7.92
NC(=O)c1cccc2c1nc(C(F)F)n2-c1nc(N2CCOCC2)nc(N2CCOCC2)n1 | < 6.00 | < 6.00 | – | 6.12 | – | – | – | – | – | 6.00
CNC(=O)c1cccc2c1nc(C(F)F)n2-c1nc(N2CCOCC2)nc(N2CCOCC2)n1 | < 6.00 | 6.53 | 7.30 | 6.32 | – | – | – | – | – | 6.00
FC(F)c1nc2c3c(ccc2n1-c1nc(N2CCOCC2)nc(N2CCOCC2)n1)OCO3 | 7.33 | 6.26 | 7.40 | 6.89 | – | – | – | – | – | 7.41
COc1ccc2c(nc(C(F)F)n2-c2nc(N3CCOCC3)nc(N3CCOCC3)n2)c1OC | 6.10 | 6.47 | 7.44 | 7.70 | – | – | – | – | – | 6.59
CNc1cc(OC)c2nc(C(F)F)n(-c3nc(N4CCOCC4)nc(N4CCOCC4)n3)c2c1 | 9.04 | 8.70 | 7.80 | 6.41 | – | – | – | – | – | 9.28
COc1cncc2c1nc(C(F)F)n2-c1nc(N2CCOCC2)nc(N2CCOCC2)n1 | 5.99 | 5.89 | 5.59 | 5.25 | – | – | – | – | – | 5.80
FC(F)c1nc2ccccc2n1-c1nc(N2CCOCC2)cc(N2CCOCC2)n1 | 7.14 | 7.52 | 6.59 | 6.92 | – | – | – | – | – | 8.00
COc1cccc2c1nc(C(F)F)n2-c1cc(N2CCOCC2)nc(N2CCOCC2)n1 | 7.40 | 8.40 | – | – | – | – | – | – | – | 7.85
CS(=O)(=O)O.Cn1c(=O)n(-c2ccc(C(C)(C)C#N)cc2)c2c3cc(-c4cnc5ccccc5c4)ccc3ncc21 | – | – | – | – | – | – | – | – | 11.3 | –

Now from value to molecule, other results behind:

pIC50 [2] | pIC50 [3] | pIC50 [4] | pIC50 [5] | pIC50 [6] | pIC50 [7] | pIC50 [8] | pIC50 [9] | solubility at […] [10] [µg/mL] | SMILES | pIC50 [1]
6.29 | 7.80 | 7.30 | 7.15 | – | – | – | – | – | CCCOc1cccc2c1nc(C(F)F)n2-c1nc(N2CCOCC2)nc(N2CCOCC2)n1 | 7.02
5.81 | 6.58 | 6.52 | 5.82 | – | – | – | – | – | c1ccc2c(c1)ncn2-c1nc(N2CCOCC2)nc(N2CCOCC2)n1 | 6.85
< 6.00 | < 6.00 | 5.26 | 6.12 | – | – | – | – | – | OCc1nc2ccccc2n1-c1nc(N2CCOCC2)nc(N2CCOCC2)n1 | 5.26
6.64 | 6.23 | 6.31 | 6.40 | – | – | – | – | – | C[S+]([O-])Cc1nc2ccccc2n1-c1nc(N2CCOCC2)nc(N2CCOCC2)n1 (centres undefined) | 7.46
6.42 | 6.69 | 5.70 | 5.00 | – | – | – | – | – | CS(=O)(=O)c1nc2ccccc2n1-c1nc(N2CCOCC2)nc(N2CCOCC2)n1 | 7.12
7.60 | 8.57 | 8.00 | 7.30 | 7.55 | 7.26 | 7.60 | 7.43 | 0.08 (≈ 0.179 µM) | COc1cccc2c1nc(C(F)F)n2-c1nc(N2CCOCC2)nc(N2CCOCC2)n1 | 8.41
5.62 | – | 6.68 | 6.64 | – | – | – | – | – | CCCCOc1cccc2c1nc(C(F)F)n2-c1nc(N2CCOCC2)nc(N2CCOCC2)n1 | 6.81
5.68 | 6.44 | 6.55 | 7.15 | – | – | – | – | – | CC(C)Oc1cccc2c1nc(C(F)F)n2-c1nc(N2CCOCC2)nc(N2CCOCC2)n1 | 6.37
6.24 | 6.53 | 6.89 | 6.77 | – | – | – | – | – | CS(=O)(=O)Oc1cccc2c1nc(C(F)F)n2-c1nc(N2CCOCC2)nc(N2CCOCC2)n1 | 6.80
< 6.00 | 5.27 | 5.60 | 7.22 | – | – | – | – | – | CN(C)c1cccc2c1nc(C(F)F)n2-c1nc(N2CCOCC2)nc(N2CCOCC2)n1 | 6.27
6.51 | 8.03 | 6.33 | 5.55 | – | – | – | – | – | COC(=O)c1cccc2c1nc(C(F)F)n2-c1nc(N2CCOCC2)nc(N2CCOCC2)n1 | 7.19
< 6.00 | < 6.00 | 6.62 | 6.14 | – | – | – | – | – | CN(C)C(=O)c1cccc2c1nc(C(F)F)n2-c1nc(N2CCOCC2)nc(N2CCOCC2)n1 | < 6.00
< 6.00 | 7.21 | < 4.70 | < 4.70 | – | – | – | – | – | N#Cc1cccc2c1nc(C(F)F)n2-c1nc(N2CCOCC2)nc(N2CCOCC2)n1 | 7.18
7.03 | – | 7.96 | – | – | – | – | – | – | COc1c(O)ccc2c1nc(C(F)F)n2-c1nc(N2CCOCC2)nc(N2CCOCC2)n1 | 8.74
6.93 | 7.24 | 7.23 | 7.02 | – | – | – | – | – | COc1cc(OC)c2nc(C(F)F)n(-c3nc(N4CCOCC4)nc(N4CCOCC4)n3)c2c1 | 7.90
7.73 | 8.10 | 6.82 | 6.89 | – | – | – | – | – | COc1cc(N(C)C)cc2c1nc(C(F)F)n2-c1nc(N2CCOCC2)nc(N2CCOCC2)n1 | 8.17
9.09 | 8.82 | – | 7.00 | – | – | – | – | – | Oc1cccc2c1nc(C(F)F)n2-c1nc(N2CCOCC2)cc(N2CCOCC2)n1 | 9.57
7.46 | 8.29 | 7.52 | 7.22 | – | – | – | – | – | COc1cccc2c1nc(C(F)F)n2-c1nc(N2CCOCC2)cc(N2CCOCC2)n1 | 7.74
6.77 | 7.06 | 6.52 | – | – | – | – | – | – | FC(F)c1nc2ccccc2n1-c1cc(N2CCOCC2)nc(N2CCOCC2)n1 | 7.89
– | – | – | – | – | – | – | – | 4.2 | COc1cc(N)cc2c1nc(C(F)F)n2-c1nc(N2CCOCC2)nc(N2CCOCC2)n1.CS(=O)(=O)O | –

Source: ChEMBL document CHEMBL1909493, “Synthesis and biological evaluation of novel analogues of the pan class I phosphatidylinositol 3-kinase (PI3K) inhibitor 2-(difluoromethyl)-1-[4,6-di(4-morpholinyl)-1,3,5-triazin-2-yl]-1H-benzimidazole (ZSTK474)” (J Med Chem, 2011)
